Results taken from patent US10835524B2, “Compositions for the treatment of pancreatic cancer and uses thereof” (University of Florida Research Foundation, Incorporated, priority 2015, dated 2020).

Key:
[1] = system: 4 KRAS mutant PDAC cell lines (MIA PaCa-2, Panc-1, T182, E549); test: Viability of KRAS mutant PDAC cell lines after single-drug treatment, MTT assay at 72 hours; format: cell-based, human; murine; conditions: 4 PDAC cell lines
Description: We treated each cell line with the mTOR inhibitor Everolimus, the AKT inhibitor MK-2206, the dual PI-3K/mTOR inhibitor BEZ235, and the MEK inhibitor Selumetinib, or Compound P (mefloquine), prior to viability assessment at 72 hours via MTT assay.
To determine optimal doses for combination, we first analyzed the viability dose-response curves for each drug. […] The optimal dose for each drug was then serially diluted by one-half from the chosen optimal dose to 1/32nd of the chosen optimal dose, such that six combination points could be analyzed. Because the ratio of each drug in each experiment remained constant in all serial dilutions, we refer to this method as the “fixed molar ratio method”.

[2] = target: human TS (Homo sapiens, UniProt P04818); test: Inhibition of the enzymatic activity of thymidylate synthase; format: biochemical
Sequence of human TS (P04818 whole entry): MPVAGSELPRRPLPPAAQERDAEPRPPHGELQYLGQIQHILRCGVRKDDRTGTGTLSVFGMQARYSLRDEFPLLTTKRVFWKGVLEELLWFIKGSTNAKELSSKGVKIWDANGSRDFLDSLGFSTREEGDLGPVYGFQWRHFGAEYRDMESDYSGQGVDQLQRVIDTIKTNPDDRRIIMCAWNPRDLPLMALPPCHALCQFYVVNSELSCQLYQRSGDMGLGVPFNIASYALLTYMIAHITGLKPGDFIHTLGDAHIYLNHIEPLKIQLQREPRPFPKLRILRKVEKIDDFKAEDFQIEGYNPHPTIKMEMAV

[3] = system: PDAC; test: Inhibition of PDAC in vivo by combination with KRAS/PI-3K/AKT/mTOR pathway inhibitors; conditions: partner inhibitors not named

Cn1c(=O)n(-c2ccc(C(C)(C)C#N)cc2)c2c3cc(-c4cnc5ccccc5c4)ccc3ncc21 [BEZ235, 2-methyl-2-[4-(3-methyl-2-oxo-8-quinolin-3-ylimidazo[4,5-c]quinolin-1-yl)phenyl]propanenitrile] was tested, and the “growth inhibition effect on cell viability” value (shortened to “growth inhibition effect”) [1] was “fully cytotoxic in 3 out of 4 cell lines”.

OC(c1cc(C(F)(F)F)nc2c(C(F)(F)F)cccc12)C1CCCCN1 (stereo not drawn) [Compound P, [2,8-bis(trifluoromethyl)quinolin-4-yl]-piperidin-2-ylmethanol] was tested, and the “mode of inhibition of the enzymatic activity of human TS” value [2] was “partial mixed-type”, the “synergy with inhibitors of the KRAS/PI-3K/AKT/mTOR pathway to inhibit PDAC in vivo” value [3] was “synergizes” and the “growth inhibition effect” value [1] was “cytotoxic in all cell lines tested”.

CO[C@H]1C[C@@H]2CC[C@@H](C)[C@@](O)(O2)C(=O)C(=O)N2CCCC[C@H]2C(=O)O[C@H]([C@H](C)C[C@@H]2CC[C@@H](OCCO)[C@H](OC)C2)CC(=O)[C@H](C)/C=C(\C)[C@@H](O)[C@@H](OC)C(=O)[C@H](C)C[C@H](C)/C=C/C=C/C=C/1C [Everolimus, (1S,9R,15R,16E,18R,19R,21S,23R,24E,26E,28E,30S,32R,35S)-1,18-dihydroxy-12-[(2S)-1-[(1S,3R,4R)-4-(2-hydroxyethoxy)-3-methoxycyclohexyl]propan-2-yl]-19,30-dimethoxy-15,17,21,23,29,35-hexamethyl-11,36-dioxa-4-azatricyclo[30.3.1.0^4,^9]hexatriaconta-16,24,26,28-tetraene-2,3,10,14,20-pentone] was tested, and the “growth inhibition effect” value [1] was “potently cytostatic”.

In the case of Cl.Cl.NC1(c2ccc(-c3nc4ccn5c(=O)[nH]nc5c4cc3-c3ccccc3)cc2)CCC1 [MK-2206, 8-[4-(1-aminocyclobutyl)phenyl]-9-phenyl-2H-[1,2,4]triazolo[3,4-f][1,6]naphthyridin-3-one; dihydrochloride], the “growth inhibition effect” value [1] is reported as “fully cytotoxic in 3 out of 4 cell lines”.
